Experimental data: patent US20240067657A1, “AMIDO-SUBSTITUTED PYRIDYL COMPOUNDS AND METHODS OF USE THEREOF FOR THE TREATMENT OF HERPESVIRUSES” (Merck Sharp & Dohme LLC, priority 2020, published 2024)
Like-named read-outs stand apart in the source and are kept apart here.

What was measured:
[1] = test system: VZV in MeWo or MRC5 cells; test: Viral qPCR assay VZV (V0/V1, V2/V3), EC50; assay type: cell-based
Protocol: (§1) Viral qPCR Assays (V0/V1)
(§2) MRC5 cells, Vero cells, and MeWo cells were obtained from ATCC and were maintained at 37° C./5% CO2/90% relative humidity in Minimal Essential Medium with 10% fetal bovine serum, […] L-glutamine, 100 units/ml penicillin and 100 ug/ml streptomycin. Assay plates were prepared by dispensing compounds dissolved in DMSO into wells of 384 well collagen-coated plates using an ECHO acoustic dispenser. Each compound was tested in a 10-point, serial 3-fold dilution. Controls included uninfected cells and infected cells treated only with DMSO. Assays were initiated by mixing selected cells, in suspension, with virus, and dispensing 50 μl/well infected cells to pre-plated compounds. Plates were incubated at 37° C./5% CO2/90% relative humidity for ˜72 hrs to permit genomic replication, and infected cells were lysed by the addition of an equal volume of lysis buffer (10 mM Tris-HCl, pH8, 50 mM KCl, 2 mM MgCl2, 0.45% NP-40, 0.45% Tween-20, and 100 μg/ml proteinase K). An aliquot of the lysate was transferred to a 384-well PCR plate and incubated at 56° C. for 1 hour and then at 95° C. for 10 min. Levels of a viral gene and of the cellular control, PPIA (Thermo Fisher Assay ID=Hs04194521_s1), were measured in separate 10 μL qPCR assays using TaqMan® Gene Expression Master Mix (Applied Biosystems), and an 7900HT Fast Real-Time PCR System with 384-Well Block Module. 7-point, serial 10-fold dilutions of a plasmid standard were run on each plate to generate a standard curve, and genome copies numbers were calculated by plotting experimental Ct onto linear regression of the standard curve. Viral genome copy numbers were normalized by cellular control copy number, and compound effects were normalized to the window defined by the controls. Calculated % effects were fit using a 4-parameter algorithm, and EC50 was reported.
(§3) Viral qPCR Assays (V2/V3)
as §2, with “gene” for “gene and of the cellular control, PPIA (Thermo Fisher Assay ID=Hs04194521_s1),”, “in” for “in separate”, “Compound effects on viral” for “Viral”, “number” for “numbers were normalized by cellular control copy number, and compound effects”, “reported. • HCMV: Strain AD169 Street was assayed in MRC-5 cells and was used at 0.05-0.1 pfu/cell. The assays were performed in either growth media or in the same media with 50% fetal bovine serum. Primer-probe set was Thermo Fisher Assay ID=AIFATFK. • VZV: Strain Street was maintained as an infected cell stock in MRC-5 cells. It was assayed in MeWo or MRC5 cells and was used at 0.04-0.1 pfu/cell. […]” for “reported.”

[2] = target: T1, Human cytomegalovirus DNA polymerase (Human cytomegalovirus, UniProt P08546); test: HCMV polymerase assay (AlphaLISA, IC50); assay type: biochemical; settings: polymerase assay of Example 190
T1 construct: made in house; host or cells: SF21 insect cells (baculovirus vector)
T1 sequence (P08546 whole entry): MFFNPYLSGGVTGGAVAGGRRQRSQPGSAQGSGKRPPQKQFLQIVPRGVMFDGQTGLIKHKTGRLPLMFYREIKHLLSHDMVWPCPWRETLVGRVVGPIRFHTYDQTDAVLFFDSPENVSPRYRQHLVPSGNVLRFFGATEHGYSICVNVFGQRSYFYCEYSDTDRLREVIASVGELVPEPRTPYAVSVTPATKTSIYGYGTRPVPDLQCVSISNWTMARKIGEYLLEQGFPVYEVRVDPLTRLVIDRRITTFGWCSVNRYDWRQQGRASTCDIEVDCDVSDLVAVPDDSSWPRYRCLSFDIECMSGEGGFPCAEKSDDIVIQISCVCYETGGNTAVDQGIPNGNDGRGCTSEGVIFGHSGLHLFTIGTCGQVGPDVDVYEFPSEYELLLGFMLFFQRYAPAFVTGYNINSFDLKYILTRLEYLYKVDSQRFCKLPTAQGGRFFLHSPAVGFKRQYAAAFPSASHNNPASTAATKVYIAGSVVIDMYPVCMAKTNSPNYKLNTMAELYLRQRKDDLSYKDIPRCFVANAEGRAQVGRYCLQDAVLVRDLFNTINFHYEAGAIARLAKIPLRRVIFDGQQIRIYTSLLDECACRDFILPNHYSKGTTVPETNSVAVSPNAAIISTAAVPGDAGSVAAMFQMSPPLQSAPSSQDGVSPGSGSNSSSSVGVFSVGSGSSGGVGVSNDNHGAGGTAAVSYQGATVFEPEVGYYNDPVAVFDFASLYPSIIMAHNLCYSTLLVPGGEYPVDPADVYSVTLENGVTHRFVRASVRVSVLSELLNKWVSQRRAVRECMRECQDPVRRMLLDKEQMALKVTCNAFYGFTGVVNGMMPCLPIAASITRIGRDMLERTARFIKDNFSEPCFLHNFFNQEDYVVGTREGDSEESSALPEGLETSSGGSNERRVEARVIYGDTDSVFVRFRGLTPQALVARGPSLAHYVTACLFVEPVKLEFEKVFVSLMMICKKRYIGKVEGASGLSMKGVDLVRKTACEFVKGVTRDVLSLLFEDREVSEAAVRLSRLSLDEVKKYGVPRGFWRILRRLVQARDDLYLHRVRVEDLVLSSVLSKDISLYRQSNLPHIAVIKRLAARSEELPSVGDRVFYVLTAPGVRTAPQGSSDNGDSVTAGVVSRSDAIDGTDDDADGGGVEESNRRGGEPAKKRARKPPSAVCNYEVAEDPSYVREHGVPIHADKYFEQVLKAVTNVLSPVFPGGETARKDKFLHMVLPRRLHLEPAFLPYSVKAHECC
Protocol: (§4) Human cytomegalovirus and varicella zoster virus DNA polymerases were expressed via baculovirus vector in SF21 cells and purified. Heterodimeric nucleic acid substrate used in the herpesvirus polymerase reactions was generated by annealing a 59-mer template to a 17-mer digoxigenin-labeled primer. Polymerase (HCMV final concentration of 0.2 nM; VZV final concentration of 0.4 nM) was combined with an inhibitor compound or DMSO in assay buffer (10 mM HEPES, pH 7.5, 25 mM KCl, 25 mM NaCl, 5 mM MgCl2, 5% glycerol, 0.67 mg/ml bovine serum albuminutes, and 1 mM tris(2-carboxyethyl)phosphine), and this mixture was pre-incubated for 30 minutes at room temperature in 384-well microtiter plates. The polymerization reaction was initiated by the addition of template/primer substrate (final concentration: 1.6 nM), and dNTPs (final concentration: 24 nM dCTP, 24 nMdGTP, 16 nM dATP, 16 nM dTTP, and 0.8 nM biotin-dUTP). After 60 minutes incubation at 37° C., reactions were terminated with quench buffer (25 mM HEPES pH 7.5, 100 mM NaCl, 0.25% Tween-20, 12 mM EDTA, and 1 mg/ml bovine serum albumin). Incorporation of biotinylated UTP was detected with 2.5-5 ug/ml anti-DIG AlphaLISA acceptor beads and 5-10 ug/ml streptavidin AlphaLISA donor beads (Perkin Elmer). Compound effects were normalized to the window defined by the controls (DMSO only and pre-quenched wells), and were fit using a 4-parameter algorithm to report an IC50.

[3] = test system: HCMV Strain AD169 in MRC-5 cells; test: Viral qPCR assay HCMV (V0/V1, V2/V3), EC50; assay type: cell-based
Protocol: as §1, §2, §3
as §2, with “gene” for “gene and of the cellular control, PPIA (Thermo Fisher Assay ID=Hs04194521_s1),”, “in” for “in separate”, “Compound effects on viral” for “Viral”, “number” for “numbers were normalized by cellular control copy number, and compound effects”, “reported. • HCMV: Strain AD169 Street was assayed in MRC-5 cells and was used at 0.05-0.1 pfu/cell. The assays were performed in either growth media or in the same media with 50% fetal bovine serum. Primer-probe set was Thermo Fisher Assay ID=AIFATFK. • VZV: Strain Street was maintained as an infected cell stock in MRC-5 cells. It was assayed in MeWo or MRC5 cells and was used at 0.04-0.1 pfu/cell. […]” for “reported.”

[4] = target: T2, varicella zoster virus DNA polymerase (Varicella-zoster virus, UniProt P09252); test: VZV polymerase assay (AlphaLISA, IC50); assay type: biochemical; settings: polymerase assay of Example 190
T2 construct: made in house; host or cells: SF21 insect cells (baculovirus vector)
T2 sequence (P09252 whole entry): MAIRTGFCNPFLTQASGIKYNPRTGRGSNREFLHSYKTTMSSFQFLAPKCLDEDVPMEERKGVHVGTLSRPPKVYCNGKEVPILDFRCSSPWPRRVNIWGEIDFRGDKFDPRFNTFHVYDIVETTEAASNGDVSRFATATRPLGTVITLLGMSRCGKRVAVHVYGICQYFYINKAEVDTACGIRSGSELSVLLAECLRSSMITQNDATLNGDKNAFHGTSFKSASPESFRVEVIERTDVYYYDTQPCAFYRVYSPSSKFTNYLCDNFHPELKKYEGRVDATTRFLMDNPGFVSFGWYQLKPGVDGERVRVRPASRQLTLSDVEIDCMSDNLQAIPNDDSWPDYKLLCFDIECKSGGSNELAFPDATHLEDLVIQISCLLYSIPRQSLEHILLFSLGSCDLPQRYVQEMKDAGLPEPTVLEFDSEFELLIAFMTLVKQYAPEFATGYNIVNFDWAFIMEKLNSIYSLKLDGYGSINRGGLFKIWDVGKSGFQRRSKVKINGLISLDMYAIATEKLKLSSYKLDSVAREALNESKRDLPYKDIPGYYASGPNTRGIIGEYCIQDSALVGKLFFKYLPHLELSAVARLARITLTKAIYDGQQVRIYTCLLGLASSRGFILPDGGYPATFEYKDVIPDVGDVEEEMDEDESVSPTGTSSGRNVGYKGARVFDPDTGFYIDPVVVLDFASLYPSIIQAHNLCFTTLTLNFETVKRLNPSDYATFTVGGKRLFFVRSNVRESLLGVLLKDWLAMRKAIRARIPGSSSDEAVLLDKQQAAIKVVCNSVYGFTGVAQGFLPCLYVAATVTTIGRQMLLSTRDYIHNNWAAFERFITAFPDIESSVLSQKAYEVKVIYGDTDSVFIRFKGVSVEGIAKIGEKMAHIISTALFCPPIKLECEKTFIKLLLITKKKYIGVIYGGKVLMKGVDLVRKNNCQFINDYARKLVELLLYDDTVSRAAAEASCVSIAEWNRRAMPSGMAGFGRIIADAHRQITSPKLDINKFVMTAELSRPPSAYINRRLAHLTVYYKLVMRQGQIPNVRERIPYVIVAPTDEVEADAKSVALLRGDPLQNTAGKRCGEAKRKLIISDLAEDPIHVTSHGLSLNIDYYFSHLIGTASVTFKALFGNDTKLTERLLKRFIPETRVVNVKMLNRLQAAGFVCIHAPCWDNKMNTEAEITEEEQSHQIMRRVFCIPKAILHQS
Protocol: as §4

[5] = test system: HSV-1 Strain F in Vero or MRC5 cells; test: Viral qPCR assay HSV-1 (V0/V1, V2/V3), EC50; assay type: cell-based
Protocol: as §1, §2, §3
as §2, with “gene” for “gene and of the cellular control, PPIA (Thermo Fisher Assay ID=Hs04194521_s1),”, “in” for “in separate”, “Compound effects on viral” for “Viral”, “number” for “numbers were normalized by cellular control copy number, and compound effects”, “reported. • HCMV: Strain AD169 Street was assayed in MRC-5 cells and was used at 0.05-0.1 pfu/cell. The assays were performed in either growth media or in the same media with 50% fetal bovine serum. Primer-probe set was Thermo Fisher Assay ID=AIFATFK. • VZV: Strain Street was maintained as an infected cell stock in MRC-5 cells. It was assayed in MeWo or MRC5 cells and was used at 0.04-0.1 pfu/cell. […]” for “reported.”

[6] = Human alphaherpesvirus 3, MeWo, MEWO cells, 10%, read-out: VZV Cell (EC50) MEWO 10%
[7] = Human betaherpesvirus 5, AD169, MRC5, viral qPCR assay of Example 191, read-out: HCMV Cell (EC50)
[8] = Human alphaherpesvirus 1, Vero, VERO cells, 10%, read-out: HSV1 Cell (EC50) VERO 10%
[9] = MRC5 cells, 10%, read-out: VZV Cell (EC50) MRC5 10%
[10] = MRC5 cells, 10%, read-out: HSV1 Cell (EC50) MRC5 10%
[11] = viral qPCR assay of Example 191, read-out: HCMV Cell (EC50)

Row | SMILES | EC50 [1, 6] | IC50 [2] | EC50 [3, 7] | IC50 [4] | EC50 [5, 8] | EC50 ([1]; Human alphaherpesvirus 3, MeWo, read-out: VZV Cell (EC50) MEWO 10%) | EC50 ([3]; Human betaherpesvirus 5, AD169, MRC5, read-out: HCMV Cell (EC50)) | EC50 ([5]; Human alphaherpesvirus 1, Vero, read-out: HSV1 Cell (EC50) VERO 10%) | EC50 [1, 9] | EC50 [5, 10] | EC50 [3, 11] | EC50 ([5]; VERO cells, 10%, read-out: HSV1 Cell (EC50) VERO 10%)
1 | CCn1cc(-c2cnc(C(=O)NCc3ccc(Cl)cc3)cc2O[C@H]2CCN3C(=O)OC[C@@H]3C2)cn1 (racemic) [Compound 16] | 165 nM | 20.8 nM | 188 nM | 11.2 nM | 200 nM | – | – | – | – | – | – | –
2 | Cn1cc(-c2cnc(C(=O)NCc3ccc(C#N)cc3)cc2O[C@H]2CCN3C(=O)OC[C@@H]3C2)cn1 (racemic) [Compound 95] | 241 nM | 38.8 nM | 181 nM | 23.9 nM | 1920 nM | – | – | – | – | – | – | –
3 | Cn1cc(-c2cnc(C(=O)NCc3ccc(Cl)cc3)cc2O[C@H]2CCN3C(=O)COC[C@@H]3C2)cn1 (racemic) [Compound 157] | – | 150 nM | – | 70.8 nM | – | 852 nM | 901 nM | 222 nM | – | – | – | –
4 | N#Cc1cnc(C(=O)NCc2ccc(Cl)cc2)cc1O[C@H]1CCN2C(=O)CC[C@@H]2C1 (racemic) [Compound 158] | 574 nM | 67.9 nM | 1040 nM | 40.7 nM | 473 nM | – | – | – | – | – | – | –
5 | O=C(NCc1ccc(Cl)cc1)c1cc(O[C@H]2CCN3C(=O)NC[C@@H]3C2)c(-c2cnn(C(F)F)c2)cn1 (racemic) [Compound 163] | 588 nM | 203 nM | 2730 nM | 105 nM | 762 nM | – | – | – | – | – | – | –
6 | Cn1cc(-c2cnc(C(=O)NCc3ccc(Cl)cc3)cc2O[C@H]2CCN3C(=O)CC[C@H]3C2)cn1 (racemic) [Compound 170] | 599 nM | 178 nM | 736 nM | 87.4 nM | 266 nM | – | – | – | – | – | – | –
7 | Cn1cc(-c2cnc(C(=O)NCc3ccc(Cl)cc3)cc2O[C@H]2CCN3C(=O)NC[C@H]3C2)cn1 (racemic) [Compound 171] | 883 nM | 219 nM | 1090 nM | 87.7 nM | 1950 nM | – | – | – | – | – | – | –
8 | CC(C)(O)C1CCN(c2cnc(C(=O)NCc3ccc(Cl)cc3)cc2O[C@H]2CCN3C(=O)OC[C@@H]3C2)C1 (single isomer, unassigned) [Compound 117-1] | – | 22.7 nM | 360 nM | 10.5 nM | – | – | – | – | 844 nM | 566 nM | – | –
9 | CC(C)(O)C1CCN(c2cnc(C(=O)NCc3ccc(Cl)cc3)cc2O[C@H]2CCN3C(=O)OC[C@@H]3C2)C1 (single isomer, unassigned) [Compound 117-2] | – | 12.1 nM | – | 3.05 nM | – | – | – | – | 9100 nM | 4780 nM | 211 nM | –
10 | O=C(NCc1ccc(Cl)cc1)c1cc(O[C@H]2CCN3C(=O)OC[C@@H]3C2)c(C2CC2CO)cn1 (single isomer, unassigned) [Compound 156-1] | – | 40.3 nM | – | 24.9 nM | – | – | – | – | 2630 nM | – | 1280 nM | 3500 nM
